Results as given in publication PMC6719321 (Clinical Pharmacokinetics, 2019).

Legend:
[1] = Trial 1
[2] = cited from earlier work
[3] = Trial 1: safety and tolerability, treatment-emergent adverse events; format: in vivo, human; conditions: after warfarin 25 mg, day 9, one subject, moderate severity, possibly related to warfarin
[4] = cited from earlier work; remark: listed apart in the source
[5] = Trial 2; format: in vivo, human
[6] = trial 2, oral semaglutide 20 mg once daily

## NCCCC[C@H](N[C@@H](CCc1ccccc1)C(=O)O)C(=O)N1CCC[C@H]1C(=O)O [Lisinopril, lisinopril]
[1]; lisinopril 20 mg single dose alone, N = 52, median (minimum, maximum)
  tmax: 6.0 h

## subcutaneous semaglutide: semaglutide as once-weekly subcutaneous injection
[2]
  mean t½ for subcutaneous semaglutide: 156 to 160 h

## CC(=O)CC(c1ccccc1)c1c(O)c2ccccc2oc1=O (stereo not drawn) [Warfarin, warfarin]
[2]; oral
  absorption: completely absorbed
[3]
  INRmax of the subject with a bleeding event (epistaxis): 2.53

## CN(C)C(=N)N=C(N)N [Metformin, metformin]
[2]
  tmax generally reported: 2.5 h
[4]; steady-state metformin
  Increase in AUC on coadministration of multiple doses of dulaglutide: up to 15%
[5]; metformin steady state, morning dose fasting
  tmax in trial 2: 0.8 to 1.0 h

## C[C@H]1O[C@@H](O[C@H]2[C@@H](O)C[C@H](O[C@H]3[C@@H](O)C[C@H](O[C@H]4CC[C@@]5(C)[C@H](CC[C@@H]6[C@@H]5C[C@@H](O)[C@]5(C)[C@@H](C7=CC(=O)OC7)CC[C@]65O)C4)O[C@@H]3C)O[C@@H]2C)C[C@H](O)[C@@H]1O [Digoxin, digoxin]
[2]; oral
  absorption (incomplete): ~ 70%
[2]; used to set the length of the washout periods, no reference given
  half-life: 30 to 50 h
[4]
  Reduction of Cmax on coadministration with liraglutide: 27–38%
[4]; digoxin PK
  AUC on coadministration with exenatide: unchanged
  Decrease of Cmax on coadministration with exenatide: 17%
[5]; digoxin 500 μg single dose alone, N = 31, median (minimum, maximum)
  tmax: 1.0 h
[5]; digoxin single dose, alone and with oral semaglutide (both conditions)
  mean t½: 42 to 43 h

## CC[C@H](C)[C@H](NC(=O)[C@H](Cc1ccccc1)NC(=O)[C@H](CCC(=O)O)NC(=O)[C@H](CCCCNC(=O)COCCOCCNC(=O)COCCOCCNC(=O)CC[C@H](NC(=O)CCCCCCCCCCCCCCCCC(=O)O)C(=O)O)NC(=O)[C@H](C)NC(=O)[C@H](C)NC(=O)[C@H](CCC(N)=O)NC(=O)CNC(=O)[C@H](CCC(=O)O)NC(=O)[C@H](CC(C)C)NC(=O)[C@H](Cc1ccc(O)cc1)NC(=O)[C@H](CO)NC(=O)[C@H](CO)NC(=O)[C@@H](NC(=O)[C@H](CC(=O)O)NC(=O)[C@H](CO)NC(=O)[C@@H](NC(=O)[C@H](Cc1ccccc1)NC(=O)[C@@H](NC(=O)CNC(=O)[C@H](CCC(=O)O)NC(=O)C(C)(C)NC(=O)[C@@H](N)Cc1cnc[nH]1)[C@@H](C)O)[C@@H](C)O)C(C)C)C(=O)N[C@@H](C)C(=O)N[C@@H](Cc1c[nH]c2ccccc12)C(=O)N[C@@H](CC(C)C)C(=O)N[C@H](C(=O)N[C@@H](CCCNC(=N)N)C(=O)NCC(=O)N[C@@H](CCCNC(=N)N)C(=O)NCC(=O)O)C(C)C [semaglutide]
[1]; trial 1, oral semaglutide 20 mg once daily, after last dose (day 84)
  Mean AUC0–24h at steady state: 0.76196 µM·h
[1]; trial 1, oral semaglutide 20 mg once daily, steady state
  mean t½: 162 h
[5]; [6]
  AUC0–24h at steady state, range of geometric means: 0.622 to 0.719 µM·h
  Cmax at steady state, range of geometric means: 31.0 to 35.8 nM
